Among the data in ChEMBL document CHEMBL1201862, “PubChem BioAssay data set” (2004) are EC50 and IC50 values, retold here.

Calls of active or inactive are those of the source.

Test system in the first experiment: not listed separately
The experiment in a line: growth suppression of PTEN-null colon cells, dose response, cell-based, HCT116 PTEN knockout (AID 1047).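 Also: HCT116 colon tumor cells with PTEN knocked out; cells exposed to compound for 60 hours before readout; potency for loss of cell viability measured by luminescence.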 Type of experiment: functional.
Details: not given
Usually EC50 stands for the midpoint of the concentration-response curve. Regarding `CC(C)(C)c1nn(-c2ccccc2)c2nc(O)c(CNCc3ccco3)cc12`, the EC50 is 7.45 µM (active).

Test system in the next experiment: not listed separately
The experiment in a line: growth suppression of beta-catenin-knockout colon cells, dose response, cell-based, HCT116, human colon tumor (AID 1045).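 Also: HCT116 colon tumor cells with beta catenin knocked out; cells exposed to compound for 60 hours.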
Details: not given
In kind it is functional.
With `CC(C)(C)c1nn(-c2ccccc2)c2nc(O)c(CNCc3ccco3)cc12`, the EC50 was 9.2 µM (active).

The target in another experiment is T1, Heat shock factor protein 1 (Mus musculus, UniProt P38532).
T1 sequence (P38532 whole entry): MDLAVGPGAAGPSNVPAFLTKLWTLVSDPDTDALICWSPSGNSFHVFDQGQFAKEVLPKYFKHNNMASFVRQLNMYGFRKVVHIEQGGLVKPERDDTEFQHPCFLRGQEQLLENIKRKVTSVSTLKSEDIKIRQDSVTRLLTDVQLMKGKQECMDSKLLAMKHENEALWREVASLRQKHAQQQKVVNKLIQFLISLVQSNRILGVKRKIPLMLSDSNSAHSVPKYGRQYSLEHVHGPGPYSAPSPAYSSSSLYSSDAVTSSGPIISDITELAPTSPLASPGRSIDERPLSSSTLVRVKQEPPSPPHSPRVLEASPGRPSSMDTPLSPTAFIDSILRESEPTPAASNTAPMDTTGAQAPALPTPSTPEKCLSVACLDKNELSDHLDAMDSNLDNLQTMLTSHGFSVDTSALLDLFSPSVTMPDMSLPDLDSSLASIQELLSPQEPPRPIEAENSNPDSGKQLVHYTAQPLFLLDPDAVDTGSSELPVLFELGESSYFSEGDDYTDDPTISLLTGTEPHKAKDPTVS
The experiment in a line: HSF1 potentiators in luciferase reporter cells, confirmation, cell-based, NIH3T3, luminescence, dose retest (AID 435004).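 Also: stress induced by proteasome inhibitor MG132 added 30 min after compound; luciferase reporter driven by HSF1 response element in NIH3T3 cells; actives raise luminescence as potentiators of the MG132 stress response.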 Type of experiment: functional.
Details: not given
For orientation: Reporter assays use an easily measured gene product as a stand-in for the process of interest.
For the compound `Clc1ccc(CNC2CCN(Cc3ccccc3)CC2)cc1`, the EC50 was > 260 µM (inactive).
Same read-out and setting: the same measure for `COc1ccc(C2/C=C\CN(S(=O)(=O)/C=C/c3ccccc3)[C@H](Cc3ccccc3)C(=O)N2Cc2ccc(F)cc2)cc1` (stereo partly specified): > 260 µM (inactive); for `O=S(=O)(c1ccc(-n2cnnn2)cc1)N1CCNCC1`: > 260 µM (inactive); for `Oc1nc(N2CCN(c3ccccc3)CC2)nc2c1CCC2`: > 260 µM (inactive).
Turning to `CCOc1cc(N2CCOCC2)c(OCC)cc1NC(=O)Cc1cccc2ccccc12`, the EC50 is > 260 µM (inactive).
Same read-out and setting: with `C=CCNC(=O)CSc1nnc(C(CC)N(C)C)n1C1CCCCC1` (stereo unspecified) the figure was > 260 µM (inactive); with `O=S(=O)(Nc1cccc2ccccc12)c1cccc2nonc12`, > 260 µM (inactive); with `CCCc1cc(=O)oc2cc(C)c(CN3CCCC3)c(O)c12`, > 260 µM (inactive).
Same read-out and setting: the same measure for `CC(C)C(C(=O)NCc1ccccc1)N(CC1CCCO1)C(=O)CNS(=O)(=O)c1ccccc1` (stereo unspecified): > 260 µM (inactive); for `COCCNC(=O)C(c1ccc(C)cc1)N(C(=O)CCC(=O)Nc1ccccn1)c1ccccc1C` (stereo unspecified): > 260 µM (inactive).
Same read-out and setting: with `CCOC(=O)c1c(C)[nH]c(C)c1S(=O)(=O)N1CCN(c2cccc(C)c2)C(C)C1` (stereo unspecified) the figure was > 260 µM (inactive).
For the compound `COc1ccc(NS(=O)(=O)c2cc(NC(=O)c3cnccn3)ccc2N2CCCC2)cc1`, the EC50 was > 260 µM (inactive).

For the next experiment, the target named is T2, Protein RecA (Mycobacterium tuberculosis, UniProt P9WHJ3).
T2 sequence (P9WHJ3 whole entry): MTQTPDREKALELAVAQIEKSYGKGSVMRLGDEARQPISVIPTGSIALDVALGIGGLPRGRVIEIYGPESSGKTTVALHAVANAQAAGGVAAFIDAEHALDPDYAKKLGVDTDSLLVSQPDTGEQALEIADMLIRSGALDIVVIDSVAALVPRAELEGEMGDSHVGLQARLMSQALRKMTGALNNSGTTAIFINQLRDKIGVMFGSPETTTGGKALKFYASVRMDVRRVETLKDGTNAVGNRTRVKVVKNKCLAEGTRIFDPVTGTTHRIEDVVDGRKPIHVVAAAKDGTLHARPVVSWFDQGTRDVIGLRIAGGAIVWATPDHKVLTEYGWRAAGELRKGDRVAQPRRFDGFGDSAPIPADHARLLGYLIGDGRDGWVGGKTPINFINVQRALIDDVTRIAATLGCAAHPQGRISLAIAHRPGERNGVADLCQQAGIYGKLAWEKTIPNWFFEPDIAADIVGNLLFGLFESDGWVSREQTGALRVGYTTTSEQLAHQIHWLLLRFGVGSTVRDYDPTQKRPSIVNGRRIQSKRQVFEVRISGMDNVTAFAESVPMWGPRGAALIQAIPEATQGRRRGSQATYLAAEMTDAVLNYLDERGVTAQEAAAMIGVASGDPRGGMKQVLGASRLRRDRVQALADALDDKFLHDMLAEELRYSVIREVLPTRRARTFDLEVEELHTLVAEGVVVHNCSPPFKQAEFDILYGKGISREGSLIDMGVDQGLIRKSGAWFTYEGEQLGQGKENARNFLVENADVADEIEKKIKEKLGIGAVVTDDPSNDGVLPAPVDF
The experiment in a line: Fluorescence Cell-Free Homogeneous Dose Retest to Identify Inhibitors of RecA-Intein Splicing Activity. [Related pubchem assays (depositor defined):AID2097, AID2223, AID489010, AID492950]. In kind it is functional.
Details: not given
In the case of `ONc1cccnc1-n1nc(C(F)(F)F)cc1C(F)(F)F`, the EC50 is > 380 µM (inconclusive).

In another experiment the test system is H9c2. The experiment in a line: cells. Type of experiment: functional, cell-based. Conditions: Rattus norvegicus, H9c2, Myocardium.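 Also: confirmatory concentration-response retest of ultra-high-throughput screening hits for modulation of myocardial damage; cell death induced by hydrogen peroxide oxidative stress; compound pretreatment for 60 min then peroxide exposure for 2 h; potency is for protecting the cells against peroxide damage rather than for killing them.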
Broadly, the IC50 is the concentration at which inhibition is half-maximal. Take `COc1ccc(S(=O)(=O)N(CCCN2CCCC2=O)Cc2cc3cc(C)c(C)cc3nc2O)cc1`: the IC50 is > 79 µM (inactive).
Regarding `Oc1nc(N2CCN(c3ccccc3)CC2)nc2c1CCC2`, the IC50 is 54.4 µM (inactive).
The same measure, in the same setting: the same measure for `CC1(NC(=O)CCc2nc(O)c3ccccc3n2)CCS(=O)(=O)C1` (stereo unspecified): > 79 µM (inactive); for `O=C(O)c1nn(CC(=O)N2CCN(c3ccccc3)CC2)c(=O)c2ccccc12`: 31 µM (inactive); for `O=C(COc1cccc(NC(=O)c2cccc([N+](=O)[O-])c2)c1)c1ccc(F)cc1`: > 79 µM (inactive).
For `O=C(N/N=C/c1ccccn1)c1cc(C2CC2)nc2ccccc12`, the IC50 is > 79 µM (inactive).
Consider `O=c1cc(-c2ccc([N+](=O)[O-])cc2)c2ccc(O)cc2o1`, for which the IC50 is > 79 µM (inactive).
Still for that read-out and setting: the same measure for `Cc1c(C=O)c2ccccn2c1C(=O)c1ccc(Cl)c([N+](=O)[O-])c1`: > 79 µM (inactive); for `COC(=O)c1c(C)[nH]c(C(=O)COc2ccc3ccc(=O)oc3c2)c1C`: > 79 µM (inactive); for `CCSc1nnc(N)s1`: > 79 µM (inactive).
Same read-out and setting: the same measure for `CC(C)(C)c1nn(-c2ccccc2)c2nc(O)c(CNCc3ccco3)cc12`: > 79 µM (inactive).
